Laboratory results reported in patent US6126909A, “Process and apparatus for the production of BI-212 and a use thereof” (Arch Development Corporation, priority 1999, dated 2000).

Legend:
[1] = Retention of chelated and non-chelated Bi-212 in peritoneal fluid; format: in vivo, rabbit; details: rabbits, 3 hours after instillation
Description: Groups of rabbits were instilled with a varying amounts (correlating to varying activities) of Bi-212 that were prepared in accordance with the before-described process, neutralized to pH values of between 5.0 and 7.4, and had added thereto a quantity of normal saline to make a 200 cc sample. To compare the distribution of Bi-212, Pb-212 ferrous hydroxide was prepared in accordance with known methods. Rotmensch et al., Gynecol. Oncol., 35:297-300 (1989). Groups of rabbits were also instilled with the Pb-212 ferrous hydroxide preparation.
Of the groups of rabbits instilled with the Bi-212 solution, a rabbit was imaged and necropsied at each of one-half hour, one hour and three hours after instillation. The percent injected activity (%IA) in each organ was measured to determine the distribution of the Bi-212(Table 6). To determine whether chelating to DTPA improved the retention of Bi-212 in the peritoneal fluid, a group of rabbits was instilled with Bi-212 DTPA, and was imaged and necropsied at three hours following instillation. The percent activity remaining in the peritoneal fluid was measured.

NIH:OVCAR-3 cells = assay: In vitro irradiation survival (clonogenic), monolayer; format: cell-based, human; details: OVCAR-3 monolayer
Description: (§1) In vitro studies were carried out using three well known cell lines, the cells from which were exposed to radiation from: (1) an X-ray source; (2) P-32 chromic phosphate; and (3) Bi-212 chloride. The three cell lines that were used are V-79, which is a Chinese hamster lung fibroblast, Ehrlich-Lettre Ascites carcinoma (ATCC CCL 77), which is an ascites producing -tumor, and NIH:OVCAR-3 (ATCC HTB 161), which is a human ovarian adenocarcinoma. These well known cell lines are predictive of what happens in vivo. The cells were grown as monolayers and into spheroid formations and subsequently irradiated, as described herein.
The V-79 cells were maintained under exponential growth conditions in minimal essential medium (MEM) supplemented with 10 percent fetal bovine serum. The Ehrlich-Lettre Ascites carcinoma cells were maintained in 90 percent NCTC 109 supplemented with 10 percent fetal bovine serum. The NIH:OVCAR-3 cells were maintained in RPMI 1640 and 10 percent fetal bovine serum.
Cells from each of the cell lines were irradiated by subjecting the cells to X-ray radiation, P-32, and Bi-212. The X-ray source that was used is a General Electric 250 kvp Maxitron, 26 […] (mA) (HVL 1.5 mm Cu) operated at a dose rate of 1.11 Greys per minute (Gy/min). The cells, in both monolayer and spheroid form were exposed at room temperature and then immediately plated for survival.
Cells in both monolayer and spheroid were exposed to P-32 chromic phosphate. The radiation dose to each sample was calculated as: […]
After exposure, the cells were washed in phosphate-buffered saline (PBS) and immediately plated for survival.
The cell lines were also irradiated using Bi-212. Bismuth-212 was eluted from a generator as described in the aforementioned patent to Atcher et al., which was a cation-exchange column supporting Ra-224, with 1 ml of 0.15 N HI, and the generator was purged with 2 ml of distilled deionized water. […] The filter was purged with 1 ml of distilled deionized water, and the radioactivity was assayed using a calibrated 3×3-in. […]
(§2) Cells were exposed over a period of four hours. The dose (D) per microCurie was calculated and corrected for decay as follows: [formula] where V=volume in milliliters, and […]
(§3) Following plating, survival measurements were taken for each of the irradiated cell samples. […] The plates were then stained with crystal violet and colonies greater than 50 cells were scored. The surviving fraction was then determined.
Intrinsic radiosensitivity (Do) was calculated from the survival curves. […] Relative biological effectiveness (RBE) was determined as the ratio of the absorbed dose of X-ray to that of alpha radiation to produce the same degree of biological effect.

[2] = system: Ehrlich-Lettre Ascites carcinoma cells; assay: as above; format: cell-based; details: dose increment reducing survival to 37 percent
Description: as §1, with “herein. […]” for “herein.”
The cell lines were also irradiated using Bi-212. […] The filter was purged with 1 ml of distilled deionized water, and the radioactivity was assayed using a calibrated 3×3-in. […]
as §2, §3
Intrinsic radiosensitivity (Do) was calculated from the survival curves. […]

SMILES: [212Bi] [Bi-212, bismuth-212]
- % activity in blood volume [1]: 4.5%
- % activity in peritoneal fluid [1]: 80%
- % activity in urine [1]: 6.0%
- D0 (intrinsic radiosensitivity) (NIH:OVCAR-3 cells; dose increment reducing survival to 37 percent): 0.75 Gy
- Relative biological effectiveness (RBE) (NIH:OVCAR-3 cells; relative to X-ray): 3.19
- D0 (intrinsic radiosensitivity) [2]: 0.65 Gy
